Results from paper PMC12559310, “Tumor-targeted top1 inhibitor delivery with optimized parp inhibition in advanced solid tumors: a phase i trial of gapped scheduling” (Nature Communications, 2025).
Where two headings read alike, the source gives them in different places.

Columns and labels:
[1] = system: DNA damage; set-up: method as in earlier work; settings: preclinical studies, transient, declining thereafter; cited from earlier work
[2] = system: P-gp; settings: in vitro; cited from earlier work
[3] = system: OAT3; settings: in vitro; cited from earlier work
[4] = system: CYP3A4; settings: in vitro; cited from earlier work
[5] = system: CYP2B6; settings: in vitro; cited from earlier work
[6] = system: patients with advanced solid tumors; experiment: Phase I dose escalation (3 + 3 design): DLTs and MTD/RP2D of CRLX101 plus olaparib; type: in vivo, human; settings: Olaparib 250 tab bid d3-13, 17-26 combined with CRLX101 12 mg/m2; % of single-agent MTD; Current study
Source text: Olaparib tablets were given at escalating doses across cohorts (as shown in Fig. 1), administered twice daily on days 3–13 and 17–26 of the treatment cycle.
A standard 3 + 3 design was used for dose escalation. […] DLTs were based on toxicities observed during the first cycle. […] Study treatment was discontinued if there was a > 3-week delay in reinstitution of treatment due to drug-related toxicity during a cycle. Dose reductions were allowed for toxicities. A maximum of two dose reductions were allowed. Dose re-escalation was not allowed.

[7] = system: OCT1; settings: in vitro; cited from earlier work
[8] = system: patients; settings: tablet BID; protocol rationale; cited from earlier work
[9] = system: CYP3A4; settings: in vitro; cited from earlier work; remark: listed apart in the source
[10] = system: CYP1A2; settings: in vitro; cited from earlier work
[11] = Olaparib peak plasma concentration (2 h post-oral administration); type: in vivo, human
Procedure: Approximately 4 mL of blood was collected into a sodium heparin tube (BD Biosciences), immediately processed into plasma before storage in cryovials at − 80 °C. […] Total CPT, polymer-unconjugated CPT, and olaparib plasma concentrations were measured using previously published assays[53],[54]. Polymer-conjugated CPT plasma concentrations were obtained via subtracting the polymer-unconjugated concentration from the total CPT concentration.
First dose pharmacokinetic parameters were calculated using noncompartmental methods (Phoenix WinNonlin 8.0, Certara Pharsight Corp, Cary, NC). Any plasma concentration measured below the LLOQ was excluded from analyses. The maximum plasma concentration (CMAX) and time to CMAX (TMAX) were recorded as observed values. The area under the plasma concentration vs time curve to the last observed time point (AUCLAST) was calculated using the Linear Up Log Down trapezoidal rule. The elimination rate (kEL) was calculated as the slope of the log-transformed concentrations vs terminal time points. AUC extrapolated to time infinity (AUCINF) was calculated as AUCLAST + CLAST/kEL, where CLAST is the concentration at the last observed time point. Half-life (t1/2) was calculated as ln2/kEL. Apparent oral clearance (CL/F) was calculated as dose/AUCINF; volume of distribution at steady-state (Vss) was calculated via the product of mean residence time extrapolated to infinity (MRTINF) and […]. Pharmacokinetic parameters were calculated for each individual and summarized using the arithmetic mean ± standard deviation (SD).

[12] = system: patients with solid tumors; settings: Inv New Drugs, cited from earlier work
[13] = system: rat; set-up: method as in olaparib Investigator’s Brochure; settings: rat Irwin test, at the doses studied; ref olaparib Investigator’s Brochure; cited from earlier work
[14] = system: MATE2K; settings: in vitro; cited from earlier work
[15] = system: target organ of toxicity; set-up: method as in olaparib Investigator’s Brochure; settings: toxicology studies; ref olaparib Investigator’s Brochure; cited from earlier work
[16] = system: MATE1; settings: in vitro; cited from earlier work
[17] = system: SCLC cell lines; set-up: method as in protocol [5]; settings: pre-clinical models of SCLC; ref protocol [5]; cited from earlier work
[18] = system: anaesthetized dog; set-up: method as in olaparib Investigator’s Brochure; settings: at the doses studied, ref olaparib Investigator’s Brochure; cited from earlier work
[19] = system: CYP3A4; settings: in vitro; cited from earlier work; remark: listed apart in the source
[20] = system: OCT2; settings: in vitro; cited from earlier work
[21] = system: OATP1B1; settings: in vitro; cited from earlier work
[22] = system: BRCP; settings: in vitro; cited from earlier work

Structure (SMILES): CC[C@@]1(O)C(=O)OCc2c1cc1n(c2=O)Cc2cc3ccccc3nc2-1 [camptothecin, 20(S)-camptothecin]
- time of peak of camptothecin-induced DNA damage [1]: 24 to 48 h

Structure (SMILES): O=C(c1cc(Cc2n[nH]c(=O)c3ccccc23)ccc1F)N1CCN(C(=O)C2CC2)CC1 [olaparib]
- P-gp inhibition [2]: inhibitor
- OAT3 inhibition [3]: inhibitor
- principal enzyme forming the 3 main metabolites [4]: CYP3A4
- CYP2B6 induction [5]: Induction
- PARPi % of MTD [6]: 83%
- OCT1 inhibition [7]: inhibitor
- single-agent maximum tolerated dose (MTD) [8]: 300 mg
- CYP3A4 inhibition [9]: inhibits CYP3A4 in vitro
- CYP1A2 induction [10]: Induction
- dose dependence of peak concentrations ([11]; 100-300 mg, 2 hours post-dose): increased proportionally with the dose
- CMAX ([11]; Olaparib dose 100 mg, N 2, 2 h post-dose, mean ± SD): 2843.1 ± 947.62 ng/mL
- CMAX ([11]; Olaparib dose 150 mg, N 5, 2 h post-dose, mean ± SD): 2359.8 ± 1548.0 ng/mL
- CMAX ([11]; Olaparib dose 200 mg, N 3, 2 h post-dose, mean ± SD): 4496.7 ± 2375.2 ng/mL
- CMAX ([11]; Olaparib dose 300 mg, N 6, 2 h post-dose, mean ± SD): 5594.6 ± 4132.4 ng/mL
- Cmax at 2 h ([11]; human, plasma, oral, Olaparib dose 250 mg, N 7, 2 h post-dose, mean ± SD): 6340 ± 4870 ng/mL
- PARPi % of MTD ([12]; Olaparib 50 mg bid d1-5 with Irinotecan 125 mg/m2 q2w, ref Chen, 2016): 12%
- PARPi % of MTD ([12]; Olaparib 50 mg qd d1-21 with Irinotecan 200 mg/m2 q3w, ref Chen, 2016): 6%
- PARPi % of MTD ([12]; Olaparib 100 mg bid d1-21 with Topotecan 1 mg/m2/d1-3, ref Samol, 2012): 25%
- behavioural, autonomic or motor effects [13]: no noticeable
- MATE2K inhibition [14]: inhibitor
- target organ of toxicity [15]: bone marrow
- MATE1 inhibition [16]: inhibitor
- single agent activity [17]: striking single agent activity in a majority of SCLC cell lines tested
- effects on cardiovascular or respiratory parameters [18]: no noticeable
- CYP3A4 induction [19]: Induction
- OCT2 inhibition [20]: inhibitor
- OATP1B1 inhibition [21]: inhibitor
- BRCP inhibition [22]: weak inhibitor
